Consider ten compounds from PubChem BioAssay (NCI).

Holding throughout (experiment): NCI-60 cell line screen, 48 h
Assay [1] has as its system U251 CNS.
In assay [2] the test system is 786-0 renal.
The subject of assay [3] is MOLT-4 leukemia.
In assay [4] the test system is HOP-62 NSCLC.
The subject of assay [5] is HOP-92 NSCLC.
The test system of assay [6] is HCT-15 colon.
The test system of assay [7] is UACC-62 melanoma.
Assay [8] concerns RPMI-8226 leukemia.
For assay [9], the system named is IGROV1 ovarian.
The subject of assay [10] is T-47D breast.

Molecules are shown by their SMILES.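 Dose response: 5 concentrations. Exposure: 48 h. Format: 96-well plates. Endpoint: linear interpolation; highest concentration if not reached. TGI: total growth inhibition.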 A value given as a limit tells only on which side of the number the result lay.

Turning to `CCOP(=O)(CN1CCNCCNCC1)OCC`, the TGI in assay [1], in assay [2], in assay [3], in assay [4], in assay [5] and in [6] was over 100 µM throughout. The TGI in assay [7], in assay [8], in assay [9] and in [10] was over 100 µM throughout.
Turning to `CC(C)(C)C1=CC(=C(c2ccc(-c3c4nc(c(-c5ccc(C(=C6C=C(C(C)(C)C)C(=O)C(C(C)(C)C)=C6)c6cc(C(C)(C)C)c(O)c(C(C)(C)C)c6)cc5)c5ccc([nH]5)c(-c5ccc(C(=C6C=C(C(C)(C)C)C(=O)C(C(C)(C)C)=C6)c6cc(C(C)(C)C)c(O)c(C(C)(C)C)c6)cc5)c5nc(c(-c6ccc(C(=C7C=C(C(C)(C)C)C(=O)C(C(C)(C)C)=C7)c7cc(C(C)(C)C)c(O)c(C(C)(C)C)c7)cc6)c6ccc3[nH]6)C=C5)C=C4)cc2)c2cc(C(C)(C)C)c(O)c(C(C)(C)C)c2)C=C(C(C)(C)C)C1=O`, the TGI in assay [1], in assay [2], in assay [3], in assay [4], in [5] and in [6] was over 100 µM in each case. The TGI in assay [7], in assay [8], in assay [9] and in [10] was over 100 µM throughout.
Turning to `N#C/C(N)=C(\C#N)N=CN`, the TGI in assay [1], in assay [2], in assay [3], in assay [4], in [5] and in assay [6] was over 100 µM throughout. The TGI in assay [7], in assay [8], in assay [9] and in assay [10] was over 100 µM in each case.
Regarding `CNC(=O)N1CN(c2ccccc2)C2(CCN(CCCC3(c4ccc(F)cc4)OCCO3)CC2)C1=O`, the TGI in assay [1], in assay [2], in [3], in assay [4], in [5] and in [6] was over 100 µM in each case. For the same compound, the TGI in assay [7], in assay [8], in assay [9] and in [10] was over 100 µM throughout.
In the case of `CC(C)Oc1ccc2c(c1)OCC1Cc3ccccc3OC21` (stereo not given), the TGI in [1] was over 100 µM; in assay [2], over 100 µM; in [3], over 100 µM; in assay [4] it was over 100 µM; in assay [5], over 100 µM; in assay [6] it was 46.2 µM. Besides, the TGI in assay [7], in assay [8], in assay [9] and in assay [10] was over 100 µM each time.
For `CC(=NNC(=S)Nc1ccc(C)cc1)c1cccc(C(C)=NNC(=S)Nc2ccc(C)cc2)n1`, the TGI in assay [1] was 97 µM; in assay [2], over 100 µM; in [3] it was 22.9 µM; in assay [4], 68.7 µM; in [5] it was over 100 µM; in [6], over 100 µM. The TGI was over 100 µM in assay [7], 85.8 µM in [8], 75.4 µM in assay [9] and over 100 µM in [10].
For the compound `Cc1ccc(NC(=S)N/N=C(/c2ccccc2)c2ccccn2)cc1`, the TGI in assay [1] was 12.9 µM; in assay [2], 13.7 µM; in [3] it was over 12.3 µM; in assay [4] it was 17.9 µM; in assay [5] it was 8.82 µM; in assay [6], 15.6 µM. The TGI in [7] is 10.1 µM; in assay [8], over 58.4 µM; in assay [9], 18.9 µM; in assay [10], 12.6 µM.
Consider `Cc1ccc2c(c1)C1(C)OC(C=CC1=O)O2` (stereo not given), for which the TGI came out at 0.549 µM in assay [1]; 0.822 µM in assay [2]; 0.862 µM in assay [3]; 12.2 µM in assay [4]; 1.48 µM in assay [5]; 0.772 µM in assay [6]. Further, the TGI stood at 3.6 µM in assay [7], 1.65 µM in assay [8], 8.88 µM in assay [9] and 1.65 µM in assay [10].
For `CC(C)(C)c1ccc(-c2nc3ccc(Cl)cc3c(=O)o2)cc1`, the TGI was 31.3 µM in assay [1]; over 100 µM in [2]; 36.3 µM in assay [3]; 49.7 µM in [4]; 46.8 µM in [5]; 49.5 µM in [6]. For the same compound, the TGI in assay [7] is 56.5 µM; in assay [8], 54.1 µM; in assay [9] it was 87.2 µM; in assay [10], over 100 µM.
Regarding `CNc1nc2n(CCO)c(-c3ccccc3)c(-c3ccccc3)nc-2c(=O)n1`, the TGI in assay [1], in [2], in assay [3], in assay [4], in assay [5] and in assay [6] was over 50 µM each time. The TGI in assay [7], in [8], in [9] and in [10] was over 50 µM each time.
